# Structures can show the parent of a compound that is named as a salt.
# Target: T1, human calcium-sensing receptor (CaSR) (Homo sapiens, UniProt P41180)
# T1 construct: expressed in transfected cells; host or cells: CHO cells (CHO/hCaSR)
# T1 sequence (P41180 20-1078): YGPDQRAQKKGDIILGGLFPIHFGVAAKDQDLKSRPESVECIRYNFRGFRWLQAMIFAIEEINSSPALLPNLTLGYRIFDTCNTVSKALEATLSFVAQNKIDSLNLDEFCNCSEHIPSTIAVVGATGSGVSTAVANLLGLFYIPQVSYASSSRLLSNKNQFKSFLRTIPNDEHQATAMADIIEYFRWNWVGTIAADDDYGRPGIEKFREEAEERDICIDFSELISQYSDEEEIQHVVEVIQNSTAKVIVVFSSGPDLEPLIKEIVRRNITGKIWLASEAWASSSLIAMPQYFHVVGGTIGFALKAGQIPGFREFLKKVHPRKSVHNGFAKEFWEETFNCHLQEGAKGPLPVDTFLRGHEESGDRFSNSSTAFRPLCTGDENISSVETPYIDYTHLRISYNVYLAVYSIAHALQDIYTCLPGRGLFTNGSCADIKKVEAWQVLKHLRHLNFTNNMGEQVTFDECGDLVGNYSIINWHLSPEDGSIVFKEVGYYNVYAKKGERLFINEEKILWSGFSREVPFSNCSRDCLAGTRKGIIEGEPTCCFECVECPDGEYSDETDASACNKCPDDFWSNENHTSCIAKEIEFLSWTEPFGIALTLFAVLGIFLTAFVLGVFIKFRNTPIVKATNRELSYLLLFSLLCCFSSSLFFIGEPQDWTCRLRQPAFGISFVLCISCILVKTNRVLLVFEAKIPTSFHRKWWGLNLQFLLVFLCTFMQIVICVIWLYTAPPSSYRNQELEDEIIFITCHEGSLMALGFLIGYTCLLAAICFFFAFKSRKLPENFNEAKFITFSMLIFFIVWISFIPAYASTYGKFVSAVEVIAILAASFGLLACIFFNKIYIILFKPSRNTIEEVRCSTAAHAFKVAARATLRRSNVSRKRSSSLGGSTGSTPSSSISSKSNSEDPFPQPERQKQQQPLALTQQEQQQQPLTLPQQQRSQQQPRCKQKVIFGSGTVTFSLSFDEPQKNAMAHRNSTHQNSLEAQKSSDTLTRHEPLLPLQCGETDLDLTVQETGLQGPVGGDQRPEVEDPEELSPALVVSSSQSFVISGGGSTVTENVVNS
# Test: Inhibitory activity on calcium-sensing receptor (CaSR) using intracellular calcium increase as an indicator (FLIPR, CHO/hCaSR)
# Format: cell-based
# Details: CHO/hCaSR cells; intracellular Ca increase induced by CaCl2; test compound 1.05 to 10,000 nM
# Experimental: Evaluation of inhibitory activity on calcium-sensing receptor (CaSR) using intracellular calcium increase as an indicator
# The preparation which is prepared by adding CHO/hCaSR to F12 medium (manufactured by Invitrogen) containing 10% fetal bovine serum to have 2×10^5 cells/mL was applied to a 384-well in an amount of 50 μL/well, and then incubated overnight in a CO2 incubator. The culture supernatant was completely removed, the assay buffer (20 mM HEPES, HBSS (Ca and Mg free) containing 2.5 mM probenecid, pH 7.4) containing Calcium 3 (manufactured by Molecular Devices), i.e., a fluorescent intracellular calcium indicator, was added thereto in an amount of 25 μL/well, and the mixture was maintained for 1 hour in a CO2 incubator. Meanwhile, Calcium 3 was prepared according to the protocol enclosed in FLIPR Calcium 3 Assay Kit (manufactured by Molecular Devices). After maintaining it for 1 hour, a solution in which the test compound is prepared to have 2.1 to 20,000 nM (final concentration of 1.05 to 10,000 nM) by an assay buffer was added thereto in an amount of 25 μL/well, and maintained for 15 minutes in a CO2 incubator. Then, the CaCl2 solution prepared to have […] by using the assay buffer was added in an amount of 25 μL/well, and the resulting intracellular Ca increase (i.e., fluorescence intensity) was measured over time using a fluorescence imaging plate reader (FLIPR, manufactured by Molecular Devices). From the data obtained, the difference between the fluorescence intensity before the addition of CaCl2 solution and the maximum fluorescence intensity after the addition of CaCl2 solution was calculated, and the 50% inhibition concentration (IC50) of the test compound was obtained.
row,SMILES,IC50 [nM]
1,CCC[C@@H](OC[C@H](O)CNC(C)(C)CC1Cc2ccccc2C1)c1cc(F)ccc1CCC(=O)O [Example 51],≤ 2270
2,COc1cccc([C@@H](C)OC[C@H](O)CNC(C)(C)CC2Cc3ccccc3C2)c1CCC(=O)O [Example 17],≤ 2340
3,CCOc1ccc(CCCCC(=O)O)c([C@@H](C)OC[C@H](O)CNC(C)(C)CC2Cc3ccccc3C2)c1 [Example 58],≤ 2150
4,"Cc1cc(-c2ccccc2[C@@H](C)OC[C@H](O)CNC2(CC3Cc4ccccc4C3)CC2)ccc1C(=O)O [Example 12, 2′-[(1R)-1-{[(2R)-3-{[1-(2,3-Dihydro-1H-inden-2-ylmethyl)cyclopropyl]amino}-2-hydroxypropyl]oxy}ethyl]-3-methylbiphenyl-4-carboxylic acid]",≤ 2200
5,C[C@@H](OC[C@H](O)CNC(C)(C)CC1Cc2ccccc2C1)c1cccc(OC(F)F)c1CCC(=O)O [Example 66],≤ 2180
6,CC[C@@H](OC[C@H](O)CNC(C)(C)CC1Cc2ccccc2C1)c1cccc(OC)c1CCC(=O)O [Example 41],≤ 2270
7,"C[C@@H](OC[C@H](O)CNC(C)(C)CC1Cc2ccccc2C1)c1ccccc1CC(C)(C)C(=O)O [Example 82, 3-{2-[(1R)-1-{[(2R)-3-{[1-(2,3-Dihydro-1H-inden-2-yl)-2-methylpropan-2-yl]amino}-2-hydroxypropyl]oxy}ethyl]phenyl}-2,2-dimethylpropanoic acid]",≤ 2350
8,Cc1ccc([C@@H](C)OC[C@H](O)CNC(C)(C)CC2Cc3ccccc3C2)c(CCCCC(=O)O)c1 [Example 43],≤ 2280
9,COc1cccc([C@@H](C)OC[C@H](O)CNC(C)(C)CC2Cc3ccccc3C2)c1CCCCC(=O)O [Example 37],≤ 2210
10,C[C@@H](OC[C@H](O)CNC(C)(C)CC1Cc2ccccc2C1)c1ccccc1CCCCCCC(=O)O [Example 68],≤ 2220
11,CC(C)Oc1cccc([C@@H](C)OC[C@H](O)CNC(C)(C)CC2Cc3ccccc3C2)c1CCC(=O)O [Example 64],≤ 2210
12,CC[C@@H](OC[C@H](O)CNC(C)(C)CC1Cc2ccccc2C1)c1cc(Cl)ccc1CCC(=O)O [Example 73],≤ 2250
13,CC[C@@H](OC[C@H](O)CNC(C)(C)CC1Cc2ccccc2C1)c1cc(F)ccc1CCC(=O)O [Example 38],≤ 2330
14,CC[C@@H](OC[C@H](O)CNC(C)(C)CC1Cc2ccccc2C1)c1ccc(Cl)cc1CCC(=O)O [Example 74],≤ 2250
15,"C[C@@H](OC[C@H](O)CNC(C)(C)CC1Cc2ccccc2C1)c1ccccc1CCCOCC(=O)O [Example 85, (3-{2-[(1R)-1-{[(2R)-3-{[1-(2,3-Dihydro-1H-inden-2-yl)-2-methylpropan-2-yl]amino}-2-hydroxypropyl]oxy}ethyl]phenyl}propoxy)acetic acid]",≤ 2270
16,"C[C@@H](OC[C@H](O)CNC(C)(C)CC1Cc2ccccc2C1)c1ccccc1CCc1nn[nH]n1 [Example 81, (2R)-1-{[2-(2,3-Dihydro-1H-inden-2-yl)-1,1-dimethylethyl]amino}-3-[(1R)-1-{2-[2-(2H-tetrazol-5-yl)ethyl]phenyl}ethoxy]propan-2-ol formate]",≤ 2160
17,"C[C@@H](OC[C@H](O)CNC(C)(C)CC1Cc2ccccc2C1)c1ccccc1CCCC(=O)O [Example 2, 4-{2-[(1R)-1-{[(2R)-3-{[1-(2,3-Dihydro-1H-inden-2-yl)-2-methylpropan-2-yl]amino}-2-hydroxypropyl]oxy}ethyl]phenyl}butanoic acid]",≤ 2420
18,Cc1ccc(CCCCC(=O)O)c([C@@H](C)OC[C@H](O)CNC(C)(C)CC2Cc3ccccc3C2)c1 [Example 46],≤ 2280
19,CCC[C@@H](OC[C@H](O)CNC(C)(C)CC1Cc2ccccc2C1)c1cc(Cl)ccc1CCC(=O)O [Example 76],≤ 2190
20,C[C@@H](OC[C@H](O)CNC(C)(C)CC1Cc2ccccc2C1)c1cc(C(F)(F)F)ccc1CCCCC(=O)O [Example 50],≤ 2050
21,"Cc1cc(-c2ccccc2[C@@H](C)OC[C@H](O)CNC(C)(C)CC2Cc3ccccc3C2)ccc1C(=O)O [Example 3, 2′-[(1R)-1-{[(2R)-3-{[1-(2,3-Dihydro-1H-inden-2-yl)-2-methylpropan-2-yl]amino}-2-hydroxypropyl]oxy}ethyl]-3-methylbiphenyl-4-carboxylic acid]",≤ 2190

# The remaining lines, values ahead:
row,IC50 [nM],SMILES
1,≤ 2170,C[C@@H](OC[C@H](O)CNC(C)(C)CC1Cc2ccccc2C1)c1cc(C(F)(F)F)ccc1CCC(=O)O [Example 49]
2,≤ 2420,"Cc1ccc([C@@H](C)OC[C@H](O)CNC(C)(C)CC2Cc3ccccc3C2)c(CCC(=O)O)c1 [Example 5, 3-{2-[(1R)-1-{[(2R)-3-{[1-(2,3-Dihydro-1H-inden-2-yl)-2-methylpropan-2-yl]amino}-2-hydroxypropyl]oxy}ethyl]-5-methylphenyl}propanoic acid]"
3,≤ 2270,C[C@@H](OC[C@H](O)CNC(C)(C)CC1Cc2ccccc2C1)c1ccc(F)cc1CCCCC(=O)O [Example 44]
4,≤ 2320,C[C@@H](OC[C@H](O)CNC(C)(C)CC1Cc2ccccc2C1)c1cc(Cl)ccc1CCC(=O)O [Example 70]
5,≤ 2270,CC[C@@H](OC[C@H](O)CNC(C)(C)CC1Cc2ccccc2C1)c1cc(F)c(C)cc1CCC(=O)O [Example 60]
6,≤ 2270,CCOc1ccc(CCC(=O)O)c([C@@H](C)OC[C@H](O)CNC(C)(C)CC2Cc3ccccc3C2)c1 [Example 56]
7,≤ 2500,"C[C@@H](OC[C@H](O)CNC(C)(C)CC1Cc2ccccc2C1)c1ccccc1CCC(=O)O [Example 1, 3-{2-[(1R)-1-{[(2R)-3-{[1-(2,3-Dihydro-1H-inden-2-yl)-2-methylpropan-2-yl]amino}-2-hydroxypropyl]oxy}ethyl]phenyl}propanoic acid]"
8,≤ 2310,C[C@@H](OC[C@H](O)CNC(C)(C)CC1Cc2ccccc2C1)c1cc(F)c(F)cc1CCC(=O)O [Example 26]
9,≤ 2370,C[C@@H](OC[C@H](O)CNC(C)(C)CC1Cc2ccccc2C1)c1ccc(C#N)cc1CCC(=O)O [Example 25]
10,≤ 2200,Cc1cc(CCCCC(=O)O)c([C@@H](C)OC[C@H](O)CNC(C)(C)CC2Cc3ccccc3C2)cc1F [Example 23]
11,≤ 2240,C[C@@H](OC[C@H](O)CNC(C)(C)CC1Cc2ccccc2C1)c1cc(F)c(Cl)cc1CCC(=O)O [Example 34]
12,≤ 2400,"C[C@@H](OC[C@H](O)CNC(C)(C)CC1Cc2ccccc2C1)c1ccc(F)cc1CCC(=O)O [Example 8, 3-{2-[(1R)-1-{[(2R)-3-{[1-(2,3-Dihydro-1H-inden-2-yl)-2-methylpropan-2-yl]amino}-2-hydroxypropyl]oxy}ethyl]-5-fluorophenyl}propanoic acid]"
13,≤ 2180,C[C@@H](OC[C@H](O)CNC(C)(C)CC1Cc2ccccc2C1)c1cc(F)c(F)cc1CCCCC(=O)O [Example 30]
14,≤ 2330,Cc1cc(CCC(=O)O)c([C@@H](C)OC[C@H](O)CNC(C)(C)CC2Cc3ccccc3C2)cc1F [Example 22]
15,≤ 2400,"C[C@@H](OC[C@H](O)CNC(C)(C)CC1Cc2ccccc2C1)c1cc(F)ccc1CCC(=O)O [Example 9, 3-{2-[(1R)-1-{[(2R)-3-{[1-(2,3-Dihydro-1H-inden-2-yl)-2-methylpropan-2-yl]amino}-2-hydroxypropyl]oxy}ethyl]-4-fluorophenyl}propanoic acid]"
